In article PMC8560925, “Inhibition of Clostridium difficile TcdA and TcdB toxins with transition state analogues” (Nature Communications, 2021):
Values joined by “and” are separate entries in the source; they are usually repeats but may differ in a detail not shown here. Equal values may be shown once. Where a name gives a salt, the structure may show the parent alone. Read-outs that look alike come from different tables or passages of the source.

Key:
[1] = target: T1, TcdB-GTD (Clostridioides difficile, UniProt P18177); experiment: biochemical; parameters: species or system Clostridium difficile
T1 construct: C-terminal His-6 tagged TcdB-GTD (amino acids 1-546); His6 (C); made in house; host or cells: Escherichia coli One Shot BL21 Star (DE3)
T1 sequence (P18177 1-546 limits assumed): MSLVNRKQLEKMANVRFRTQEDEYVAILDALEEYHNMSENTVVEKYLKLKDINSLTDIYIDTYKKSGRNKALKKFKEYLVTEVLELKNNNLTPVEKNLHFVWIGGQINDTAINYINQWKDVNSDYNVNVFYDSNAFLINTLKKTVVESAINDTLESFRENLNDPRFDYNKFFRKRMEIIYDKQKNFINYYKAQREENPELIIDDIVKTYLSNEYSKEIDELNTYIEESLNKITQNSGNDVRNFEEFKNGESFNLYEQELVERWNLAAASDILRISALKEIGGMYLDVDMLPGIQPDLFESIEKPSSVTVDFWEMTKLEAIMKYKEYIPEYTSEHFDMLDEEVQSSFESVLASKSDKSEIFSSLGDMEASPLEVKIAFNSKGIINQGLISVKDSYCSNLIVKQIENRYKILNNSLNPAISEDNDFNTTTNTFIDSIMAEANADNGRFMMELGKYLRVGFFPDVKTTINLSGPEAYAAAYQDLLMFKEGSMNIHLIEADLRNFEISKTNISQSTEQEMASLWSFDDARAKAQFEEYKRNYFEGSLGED

[2] = target: T1, TcdB-GTD; experiment: biochemical; type: biochemical, Clostridium difficile
[3] = system: C. sordelli lethal toxin; conditions: cited from earlier work
[4] = system: TcdB-GTD; conditions: cited from earlier work
[5] = target: T2, TcdA-GTD (Clostridioides difficile, UniProt P16154); experiment: biochemical; type: biochemical, Clostridium difficile
T2 construct: TcdA-GTD (amino acids 1–542); His6 (C); made in house; host or cells: E. coli One shot BL21 Star (DE3)
T2 sequence (P16154 1-542): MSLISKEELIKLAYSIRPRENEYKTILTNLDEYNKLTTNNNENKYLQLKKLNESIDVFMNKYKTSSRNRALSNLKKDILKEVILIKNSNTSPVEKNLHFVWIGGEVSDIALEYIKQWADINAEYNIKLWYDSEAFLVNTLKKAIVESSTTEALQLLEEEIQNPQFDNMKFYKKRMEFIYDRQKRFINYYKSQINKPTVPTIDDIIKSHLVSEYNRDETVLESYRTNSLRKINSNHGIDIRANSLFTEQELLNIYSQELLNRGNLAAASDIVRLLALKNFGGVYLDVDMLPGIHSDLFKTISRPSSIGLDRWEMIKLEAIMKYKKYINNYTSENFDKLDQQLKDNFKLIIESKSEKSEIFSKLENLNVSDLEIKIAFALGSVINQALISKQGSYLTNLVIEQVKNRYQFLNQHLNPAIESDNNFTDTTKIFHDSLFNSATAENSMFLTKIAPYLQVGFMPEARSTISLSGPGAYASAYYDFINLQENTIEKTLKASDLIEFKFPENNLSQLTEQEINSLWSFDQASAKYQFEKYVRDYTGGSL

[6] = target: T1, TcdB-GTD; type: binding, Clostridium difficile
[7] = target: T3, TcdB-GTD in the presence of UDP (Clostridioides difficile, UniProt P18177); experiment: biochemical; type: binding, Clostridium difficile; conditions: for Kd: ITC, 1 mM UDP
T3 construct: C-terminal His-6 tagged TcdB-GTD (amino acids 1-546); His6 (C); made in house; host or cells: Escherichia coli One Shot BL21 Star (DE3)
T3 sequence (P18177 1-546 limits assumed): as the sequence (P18177 1-546 limits assumed) above

[8] = system: TcdA-induced cell rounding of Vero cells; experiment: cells; type: cell-based; conditions: Chlorocebus sabaeus, 2 h, read-out: Calculated IC50 cell rounding
[9] = system: TcdB-induced cell rounding of Vero cells; experiment: cells; type: cell-based; conditions: Chlorocebus sabaeus, 1.5 h, read-out: Calculated IC50 cell rounding
[10] = system: TcdA-induced cell rounding of IMR90 cells; type: cell-based, human
[11] = system: TcdB-induced cell rounding of IMR90 cells; type: cell-based, human
[12] = system: Rac1 glucosylation by TcdA in IMR90 cells; experiment: Western blot analysis of Rac1 glucosylation in IMR90 cells, TcdA; type: cell-based, human; conditions: 12.5–100 µM iminosugar, 1 nM TcdA, 6 h
Description: (§1) IMR90 cells were grown in EMEM with 10% FBS in 24-well plates inoculated at 50,000 cells/well. […] Next, TcdA (1 nM final) or TcdB (0.1 nM final) was added to each well and cells were incubated at 37 °C, 5% CO2 for 6 h. The cells were lysed with mammalian cell lysis buffer (Abcam) according to manufacturer’s instructions. Cell lysates (2 µg) were heated at 95 °C in XT-loading dye (Bio-rad) before being loaded on an SDS polyacrylamide gel. Following electrophoresis, samples were transferred to PVDF membrane using an iblot2 device (ThermoFisher), blocked with 1% milk in PBS 0.1% Tween 20 for 1 h at room temperature and probed with a 1/4000 dilution of anti-Rac1 (Mab102, Thermo Fisher) and 1/8000 of anti-GAPDH antibody (Abcam) for 1 h at room temperature. Following incubation with the primary antibody, the membrane was washed 3 times with PBS with 0.1% Tween20 and incubated with a 1/40,000 dilution of secondary antibody for 1 h. Following incubation with the secondary antibody, the membrane was washed 3 times in PBS 0.1% tween 20 before a final wash in PBS. […]

[13] = system: Rac1 glucosylation by TcdB in IMR90 cells; experiment: Western blot analysis of Rac1 glucosylation in IMR90 cells, TcdB; type: cell-based, human; conditions: 12.5–100 µM iminosugar, 0.1 nM TcdB, 6 h
Description: as §1

[14] = system: TcdA-induced apoptosis of HT-29 cells; type: cell-based
[15] = system: cell lines; experiment: Cell toxicity of the iminosugars in the cell lines used; type: cell-based; conditions: high treatment concentrations
[16] = system: Gaucher disease patients; parameters: method as in NCTs: 00433147; 00446550; 00813865; 00875160; conditions: ref NCTs: 00433147, 00446550, 00813865, 00875160, cited from earlier work
[17] = parameters: method as in Khanna et al, FEBS journal, 2010, vol 277, p 1618; conditions: after administration; ref Khanna et al, FEBS journal, 2010, vol 277, p 1618; cited from earlier work
[18] = Ki TcdB-GTD glucohydrolase activity
[19] = Ki TcdB-GTD glucosyltransferase activity
[20] = Ki TcdB-GTD glucosyltransferase activity, fixed concentration of UDP at 2 x Ki UDP
[21] = Ki TcdA-GTD glucosyltransferase activity
[22] = Ki TcdA-GTD glucosyltransferase activity, fixed concentration of UDP at 2 x Ki UDP

OC[C@@H]1[C@@H](O)[C@H](O)[C@H]2[C@@H](O)CCN21 [Australine HCl, australine hydrochloride]
Ki ([1]; read-out: Ki TcdB-GTD GH activity, no inhibition): > 10000 µM
Ki ([1]; read-out: Ki TcdB-GTD glucohydrolase activity): > 10000 µM
remaining activity at 500 µM ([2]; read-out: % enzyme activity): 73.4%
remaining activity at 1000 µM ([2]; read-out: % enzyme activity): 45.1%
remaining activity at 2000 µM ([2]; read-out: % enzyme activity): 21.8%
remaining activity at 4000 µM ([2]; read-out: % enzyme activity): 0%
remaining activity at […] ([2]; read-out: % enzyme activity): 100%
Ki ([2]; read-out: Ki TcdB-GTD glucosyltransferase activity): 1570 ± 430 µM

O[C@H]1[C@H](O)[C@@H](O)CN2CC[C@H](O)[C@H]12 [Castanospermine]
Ki [1, 18]: 3400 ± 200 µM
Ki [2, 19]: 680 ± 20 µM
remaining activity at 1000 µM ([2]; read-out: % enzyme activity): 25.9%
remaining activity at 4000 µM ([2]; read-out: % enzyme activity): 0%
IC50 [3]: ~100 µM
IC50 [4]: ~400 µM

OC[C@H]1NC[C@H](O)[C@@H](O)[C@@H]1O [Deoxynojirimycin]
Inhibition of TcdB-GTD GH activity [1]: did not inhibit
Ki [1, 18]: > 10000 µM
Inhibition of TcdB-GTD GT activity [2]: did not inhibit
Ki [2, 19]: > 10000 µM

O=C1O[C@H](CO)[C@@H](O)[C@H](O)[C@H]1O [Gluconolactone, D-gluconon-1,5-lactone]
Ki [1, 18]: 414 µM
Ki [2, 19]: 440 µM

OC[C@H]1OC(O)[C@H](O)[C@@H](O)[C@@H]1O (stereo partly shown) [Glucose]
Inhibition [2]: no significant inhibition
Inhibition of TcdB-GTD ([4]; ref 42 (numbering of the author response)): no significant inhibition

OC[C@H]1CNC[C@@H](O)[C@@H]1O [Isofagomine]
Ki [1, 18]: 4.8 ± 0.2 µM
Mode of inhibition versus UDP-glucose [2]: uncompetitive
fold improvement of inhibitory affinity in the presence of UDP [2]: 2.4 fold
Ki [2, 19]: 1.4 ± 0.1 µM
Ki [2, 20]: 0.29 ± 0.06 µM
remaining activity at 0.015 µM ([2]; read-out: % enzyme activity): 99.7%
remaining activity at 0.061 µM ([2]; read-out: % enzyme activity): 100%
remaining activity at 0.24 µM ([2]; read-out: % enzyme activity): 88.2%
remaining activity at 0.48 µM ([2]; read-out: % enzyme activity): 95.9%
remaining activity at 1.95 µM ([2]; read-out: % enzyme activity): 72%
remaining activity at 3.9 µM ([2]; read-out: % enzyme activity): 37.8%
remaining activity at 3.906 µM ([2]; read-out: % enzyme activity): 15.8%
remaining activity at 7.81 µM ([2]; read-out: % enzyme activity): 19.7%
remaining activity at 15.62 µM ([2]; read-out: % enzyme activity): 8.07%
remaining activity at […] ([2]; read-out: % enzyme activity): 87.8% and 80.5% and 43.4%
Mode of inhibition versus UDP-glucose [5]: uncompetitive inhibition
fold improvement of inhibition constant for TcdA-GTD relative to TcdB-GTD [5]: 5.8 fold
fold improvement of inhibition constant in the presence of UDP [5]: 15 fold
Ki [5, 21]: 0.24 ± 0.01 µM
Ki [5, 22]: 0.016 ± 0.002 µM
Binding to TcdB-GTD alone (ITC) [6]: no significant binding
ΔH [7]: -10.3 ± 0.1 kcal/mol
−TΔS [7]: 0.5 ± 0.2 kcal/mol
Kd [7]: 0.067 µM and 0.0669 µM
IC50 [8]: 5.5 ± 1.5 µM
IC50 [9]: 8.3 ± 3.6 µM
Effect on toxin-induced cell rounding [10]: prevented
Effect on toxin-induced cell rounding [11]: prevented
Unglucosylated Rac1 (Mab102) versus total Rac1 [12]: dose-dependent reappearance of unglucosylated Rac1
Unglucosylated Rac1 (Mab102) versus total Rac1 [13]: dose-dependent reappearance of unglucosylated Rac1
Effect on TcdA-induced apoptosis (Annexin V) [14]: prevented apoptosis
Cell toxicity [15]: no cell toxicity
Tolerability of oral doses ([16]; 225 mg/day oral, Gaucher patients): well tolerated
Reduction in Gaucher disease symptoms ([16]; majority of patients): did not show a significant reduction
Time to maximal levels in plasma, liver, spleen and brain [17]: ≤ 1 h

OC[C@H]1CNC(O)[C@@H](O)[C@@H]1O (stereo partly shown) [Noeuromycin]
Ki [1, 18]: 12 ± 1.6 µM
Mode of inhibition versus UDP-glucose [2]: uncompetitive
fold improvement of inhibitory affinity in the presence of UDP [2]: 4.8 fold
fold less potent than isofagomine [2]: 7.6 fold
Ki [2, 19]: 10.6 ± 1 µM
Ki [2, 20]: 4.4 ± 0.1 µM
fold improvement of inhibition constant for TcdA-GTD relative to TcdB-GTD [5]: 2.3 fold
fold improvement of inhibition constant in the presence of UDP [5]: 23 fold
Ki ([5]; Ki TcdA-GTD GT activity, fixed concentration of UDP at 2 x Ki UDP): 0.21 ± 0.05 µM
Ki [5, 21]: 4.7 ± 0.2 µM
Ki [5, 22]: 0.214 ± 0.055 µM
Binding to TcdB-GTD alone (ITC) [6]: no significant binding
ΔH [7]: -5.2 ± 0.1 kcal/mol
−TΔS [7]: 4.2 ± 0.3 kcal/mol
Kd [7]: 0.18 µM
IC50 [8]: 9.6 ± 3.3 µM
IC50 [9]: 13.6 ± 5.6 µM
Effect on toxin-induced cell rounding [10]: prevented
Effect on toxin-induced cell rounding [11]: prevented
Unglucosylated Rac1 (Mab102) versus total Rac1 [12]: dose-dependent reappearance of unglucosylated Rac1
Unglucosylated Rac1 (Mab102) versus total Rac1 [13]: dose-dependent reappearance of unglucosylated Rac1
Effect on TcdA-induced apoptosis (Annexin V) [14]: prevented apoptosis
Cell toxicity [15]: no cell toxicity

O[C@H]1[C@H]2[C@H](O)CCCN2C[C@H]1O [Swainsonine]
Ki ([1]; Ki TcdB-GTD GH activity): > 10000 µM
Ki [1, 18]: > 10000 µM
Ki ([2]; Ki TcdB-GTD GT activity): > 10000 µM
Ki [2, 19]: > 10000 µM

O.O=c1ccn([C@@H]2O[C@H](COP(=O)([O-])OP(=O)([O-])O)[C@@H](O)[C@H]2O)c(=O)[nH]1.[Na+].[Na+] [UDP, Uridine 5’diphosphate disodium salt hydrate]
Mode of inhibition versus UDP-glucose [2]: competitive inhibition
remaining activity at 4.84 µM ([2]; read-out: % enzyme activity): 86.1%
remaining activity at 19.37 µM ([2]; read-out: % enzyme activity): 65.3%
remaining activity at 78 µM ([2]; read-out: % enzyme activity): 19.7%
remaining activity at […] ([2]; read-out: % enzyme activity): 99.1%
ΔH [6]: -14.3 ± 3.9 kcal/mol
−TΔS [6]: 8.2 ± 3.8 kcal/mol
